Key:
[1] = as disclosed in U.S. Pat. No. 9,458,130; cited from earlier work
[2] = Phase 2b study of MIN-101 in patients with schizophrenia (negative symptoms, cognitive function, CDSS); type: in vivo, human
Description: The oral dosage forms used in this Phase 2b study were the 32 mg MR tablet described in Example 1 below and an essentially identical 64 mg MR tablet.
Thus, in an aspect, administration of a gastro-resistant CR oral dosage form of the present disclosure to a patient with a diagnosis of schizophrenia is intended to improve cognitive function in the patient.
A secondary outcome of the phase 2b study of MIN-101 discussed above was patients' performance on the Calgary Depression Scale for Schizophrenia (CDSS) ADDINGTON D, ADDINGTON J, MATICKA-TYNDALE E. ASSESSING DEPRESSION IN S CHIZOPHRENIA: THE CALGARY DEPRESSION SCALE. BRITISH JOURNAL OF PSYCHIATRY SUPPLEMENT 1993; (22):39-44. The CDSS has little overlap with positive and negative symptoms and has become the recommended scale to assess the severity of depression in patients with schizophrenia. In the phase 2b study, the severity of symptoms as measured by the CDSS was reduced following treatment with 32 or 64 mg of MIN-101 compared to placebo. […] Thus, since the effects of MIN-101 on negative symptoms and depression symptoms in schizophrenia patients were largely independent of each other, MIN-101 has the potential to alleviate one or more depression symptoms in patients who are not schizophrenic.

[3] = human, in vivo

SMILES: Cl.O.O.O=C(CN1CCC(CN2Cc3ccccc3C2=O)CC1)c1ccc(F)cc1 [MIN-101, 1H-Isoindol-1-one, 2-[[1-[2-(4-Fluorophenyl)-2-oxoethyl]-4-piperidinyl]methyl]-2,3-dihydro-, hydrochloride, hydrate (1:1:2)]
- QT prolongation in patients [1]: has been observed
- Cognitive function ([2]; phase 2b study): improvement in cognitive function
- Negative symptoms in patients with schizophrenia ([2]; phase 2b, 32 mg and 64 mg MR tablets): rapid, statistically significant and clinically meaningful reductions in negative symptoms
- Severity of depression symptoms as measured by the CDSS ([2]; phase 2b, 32 or 64 mg compared to placebo): reduced
- Plasma levels of BFB-520 in CYP2D6 poor metabolizers [3]: high plasma levels of BFB-520

— US12048768B2, “Gastro-resistant controlled release oral dosage forms” (Minerva Neurosciences, Inc., priority 2017, dated 2024)
